Assays:
barnyardgrass [1] = experiment: Test A pre-/postemergence herbicide test; assay type: in vivo, Echinochloa crus-galli
In short: (§1)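 Seeds sown in sandy loam received a preemergence directed soil spray of compound in non-phytotoxic solvent with surfactant; postemergence plants (2–10 cm, one- to two-leaf stage) were sprayed to runoff at the same time. After ~10 days in greenhouse, injury was rated visually versus untreated controls (0 = no effect, 100 = complete control).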

large crabgrass [2] = experiment: Test A pre-/postemergence herbicide test; assay type: in vivo, Digitaria sanguinalis
In short: as §1

giant foxtail [3] = experiment: Test A pre-/postemergence herbicide test; assay type: in vivo, Setaria faberi
In short: as §1

morningglory [4] = experiment: Test A pre-/postemergence herbicide test; assay type: in vivo, Ipomoea spp.
In short: as §1

redroot pigweed = experiment: Test A pre-/postemergence herbicide test; assay type: in vivo, Amaranthus retroflexus
In short: as §1

velvetleaf [5] = experiment: Test A pre-/postemergence herbicide test; assay type: in vivo, Abutilon theophrasti
In short: as §1

barnyardgrass [6] = experiment: Test B pre-/postemergence herbicide test; assay type: in vivo, Echinochloa crus-galli; settings: for Barnyardgrass plant response rating: postemergence
In short: (§2)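 Seeds were planted and treated preemergence with compounds formulated in a non-phytotoxic solvent mixture containing surfactant, while plants at the 1- to 4-leaf stage (2 to 18 cm) received postemergence sprays. Flooded paddy plants were grown to the 2-leaf stage. After 13 to 15 days in a greenhouse, injury was visually rated 0–100 against untreated controls.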

Surinam grass = experiment: Test B pre-/postemergence herbicide test; assay type: in vivo, Urochloa decumbens; settings: for Surinam Grass plant response rating: postemergence
In short: as §2

cocklebur = experiment: Test B pre-/postemergence herbicide test; assay type: in vivo, Xanthium strumarium; settings: for Cocklebur plant response rating: postemergence
In short: as §2

corn = experiment: Test B pre-/postemergence herbicide test; assay type: in vivo, Zea mays; settings: for Corn plant response rating: postemergence
In short: as §2

large crabgrass [7] = experiment: Test B pre-/postemergence herbicide test; assay type: in vivo, Digitaria sanguinalis; settings: for Crabgrass, Large plant response rating: postemergence
In short: as §2

giant foxtail [8] = experiment: Test B pre-/postemergence herbicide test; assay type: in vivo, Setaria faberi; settings: for Foxtail, Giant plant response rating: postemergence
In short: as §2

lambsquarters = experiment: Test B pre-/postemergence herbicide test; assay type: in vivo, Chenopodium album; settings: for Lambsquarters plant response rating: postemergence
In short: as §2

morningglory [9] = experiment: Test B pre-/postemergence herbicide test; assay type: in vivo, Ipomoea coccinea; settings: for Morningglory plant response rating: postemergence
In short: as §2

pigweed = experiment: Test B pre-/postemergence herbicide test; assay type: in vivo, Amaranthus retroflexus; settings: for Pigweed plant response rating: postemergence
In short: as §2

velvetleaf [10] = experiment: Test B pre-/postemergence herbicide test; assay type: in vivo, Abutilon theophrasti; settings: for Velvetleaf plant response rating: postemergence
In short: as §2

blackgrass = experiment: Test B postemergence herbicide test; assay type: in vivo, Alopecurus myosuroides; settings: postemergence
In short: (§3)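 Postemergence plants were sprayed with formulated test chemicals at 2 to 18 cm height (1- to 4-leaf stage); paddy species were grown to the 2-leaf stage. After 13 to 15 days in a greenhouse, injury was rated visually against untreated controls on a 0–100 scale (0 = no effect, 100 = complete control).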

wheat = experiment: Test B postemergence herbicide test; assay type: in vivo, Triticum aestivum; design: key to Wheat plant response rating: 0 = no effect, 100 = complete control; settings: postemergence
In short: (§4)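 Scale 0–100: zero equals no visible effect, 100 complete control, judged by eye relative to controls. Timing: 13 to 15 days in greenhouse post-treatment. Growth stage at spraying: two leaves (paddy) or one to four leaves, 2–18 cm (postemergence).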

wild oat = experiment: Test B postemergence herbicide test; assay type: in vivo, Avena fatua; settings: postemergence
In short: as §4

rice = experiment: Test B flooded paddy test; assay type: in vivo, Oryza sativa; settings: 1000 g ai/ha, scale 0 to 100 (0 no effect, 100 complete control)
In short: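 Visual ratings, 0 (no effect) to 100 (complete control), made versus controls after 13–15 d greenhouse. Paddy plants treated at 2-leaf stage; postemergence plants at 1- to 4-leaf stage, 2–18 cm tall.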

[11] = system: small flower umbrella sedge; experiment: Test B flooded paddy test; assay type: in vivo, Cyperus difformis; settings: 1000 g ai/ha, scale 0 to 100 (0 no effect, 100 complete control)
In short: as §3

ducksalad = experiment: Test B flooded paddy test; assay type: in vivo, Heteranthera limosa; settings: 1000 g ai/ha, scale 0 to 100 (0 no effect, 100 complete control)
In short: as §3

barnyardgrass [12] = experiment: Test B flooded paddy test; assay type: in vivo, Echinochloa crus-galli; settings: 1000 g ai/ha, scale 0 to 100 (0 no effect, 100 complete control)
In short: as §3

[13] = Postemergence, 500 g ai/ha, 0 to 100 scale, 0 no effect, 100 complete control
[14] = Postemergence, 2000 g ai/ha, 0 to 100 scale, 0 no effect, 100 complete control
[15] = Preemergence, 2000 g ai/ha, visual rating, 0 to 100 scale (0 no effect, 100 complete control)
[16] = preemergence, 500 g ai/ha, visual injury, 0 to 100 scale (0 no effect, 100 complete control)
[17] = 125 g ai/ha, 0 is no effect, 100 is complete control, preemergence
[18] = 125 g ai/ha, visual rating, scale 0 (no effect) to 100 (complete control)
[19] = 500 g ai/ha, visual rating, 0 = no effect, 100 = complete control, preemergence
[20] = 500 g ai/ha, scale 0 to 100, 0 is no effect, 100 is complete control

CCc1nn(C2CCCC2)nc1C(=O)Nc1cccc(C(=O)N(C)C)c1 [Compound 355]
0: Barnyardgrass plant response rating (barnyardgrass [6]; [18]) | Plant response rating (0 to 100 scale), Cocklebur (cocklebur; [17]) | Cocklebur plant response rating (cocklebur; [18]) | Corn plant response rating (corn; [18]) | Corn plant response rating (corn; [20]) | Plant response rating (0 to 100 scale), Velvetleaf (velvetleaf [10]; [17]) | Blackgrass plant response rating (blackgrass; [18]) | Wheat plant response rating (wheat; [18]) | Oat, Wild plant response rating (wild oat; [18])
70: Plant response rating (0 to 100 scale), Barnyardgrass (barnyardgrass [6]; [17]) | Plant response rating (0 to 100 scale), Crabgrass, Large (large crabgrass [7]; [17]) | Lambsquarters plant response rating (lambsquarters; [20]) | Sedge, Umbrella plant response rating [11] | Ducksalad plant response rating (ducksalad)
80: Barnyardgrass plant response rating (barnyardgrass [1]; [15]) | Plant response rating, Surinam Grass (Surinam grass; [19]) | Plant response rating (0 to 100 scale), Lambsquarters (lambsquarters; [17])
90: Plant response rating, Pigweed (redroot pigweed; [14]) | Plant response rating, Barnyardgrass (barnyardgrass [6]; [19]) | Plant response rating, Foxtail, Giant (giant foxtail [8]; [19])
25: Velvetleaf plant response rating (velvetleaf [5]; [16])
45: Plant response rating, Foxtail, Giant (giant foxtail [3]; [14])
50: Barnyardgrass plant response rating (barnyardgrass [1]; [16]) | Crabgrass, Large plant response rating (large crabgrass [2]; [15]) | Pigweed plant response rating (redroot pigweed; [15]) | Plant response rating (0 to 100 scale), Pigweed (pigweed; [17]) | Pigweed plant response rating (pigweed; [20]) | Velvetleaf plant response rating (velvetleaf [10]; [20]) | Rice plant response rating (rice) | Barnyardgrass plant response rating (barnyardgrass [12])
65: Plant response rating, Velvetleaf (velvetleaf [5]; [14])
15: Morningglory plant response rating (morningglory [4]; [13]) | Velvetleaf plant response rating (velvetleaf [5]; [13])
40: Barnyardgrass plant response rating (barnyardgrass [1]; [13]) | Morningglory plant response rating (morningglory [4]; [15]) | Pigweed plant response rating (redroot pigweed; [13]) | Plant response rating (0 to 100 scale), Surinam Grass (Surinam grass; [17]) | Morningglory plant response rating (morningglory [9]; [20])
100: Plant response rating, Crabgrass, Large (large crabgrass [7]; [19]) | Plant response rating, Lambsquarters (lambsquarters; [19]) | Plant response rating, Pigweed (pigweed; [19])
60: Foxtail, Giant plant response rating (giant foxtail [3]; [15]) | Plant response rating, Corn (corn; [19])
20: Crabgrass, Large plant response rating (large crabgrass [2]; [16]) | Foxtail, Giant plant response rating (giant foxtail [3]; [16]) | Surinam Grass plant response rating (Surinam grass; [20]) | Plant response rating (0 to 100 scale), Corn (corn; [17]) | Foxtail, Giant plant response rating (giant foxtail [8]; [18]) | Pigweed plant response rating (pigweed; [18]) | Blackgrass plant response rating (blackgrass; [20]) | Wheat plant response rating (wheat; [20])
30: Plant response rating, Crabgrass, Large (large crabgrass [2]; [14]) | Foxtail, Giant plant response rating (giant foxtail [8]; [20]) | Velvetleaf plant response rating (velvetleaf [10]; [18]) | Oat, Wild plant response rating (wild oat; [20])
55: Velvetleaf plant response rating (velvetleaf [5]; [15])
10: Crabgrass, Large plant response rating (large crabgrass [2]; [13]) | Foxtail, Giant plant response rating (giant foxtail [3]; [13]) | Morningglory plant response rating (morningglory [4]; [16]) | Pigweed plant response rating (redroot pigweed; [16]) | Barnyardgrass plant response rating (barnyardgrass [6]; [20]) | Surinam Grass plant response rating (Surinam grass; [18]) | Plant response rating, Cocklebur (cocklebur; [19]) | Cocklebur plant response rating (cocklebur; [20]) | Crabgrass, Large plant response rating (large crabgrass [7]; [18]) | Crabgrass, Large plant response rating (large crabgrass [7]; [20]) | Plant response rating (0 to 100 scale), Foxtail, Giant (giant foxtail [8]; [17]) | Lambsquarters plant response rating (lambsquarters; [18]) | Plant response rating (0 to 100 scale), Morningglory (morningglory [9]; [17]) | Morningglory plant response rating (morningglory [9]; [18]) | Plant response rating, Morningglory (morningglory [9]; [19])
75: Plant response rating, Barnyardgrass (barnyardgrass [1]; [14]) | Plant response rating, Morningglory (morningglory [4]; [14])

— patent US20060069132A1, “Azolecarboxamide herbicides” (priority 2004, published 2006)
